US20230233569A1 (Revolution Medicines, Inc., priority 2020, published 2023)

How the values were obtained:
NCI-H358 (K-Ras G12C) = assay: CellTiter-Glo cell viability assay, 5-day treatment; assay type: cell-based; settings: Homo sapiens, NCI-H358, 120 h, 5-day treatment; read-out: H358 Cell Viability assay data (K-Ras G12C, IC50)
Experimental: Protocol: CellTiter-Glo® Cell Viability Assay
Note—The following protocol describes a procedure for monitoring cell viability of K-Ras mutant cancer cell lines in response to a compound of the invention. Other RAS isoforms may be employed, though the number of cells to be seeded will vary based on cell line used.
(§1) Test compounds (132.5 nL) were directly dispensed into the assay plates containing cells. […] On day 5, assay plates and their contents were equilibrated to room temperature for approximately 30 minutes. […] Luminescence was measured using the PerkinElmer Enspire. Data were normalized by the following: (Sample signal/Avg. DMSO)*100. The data were fit using a four-parameter logistic fit.
as §1, with “nl)” for “nL)”

KRAS G12C = KRAS G12C (Homo sapiens, UniProt P01116+P62937, G12C); assay: Disruption of BRAF RBD interaction with Ras (FRET / MOA assay, with Cyclophilin A); assay type: biochemical; settings: read-out: KRAS G12C FRET data, IC50
Sequence of KRAS G12C (P01116 1-169 isoform P01116-2 G12C): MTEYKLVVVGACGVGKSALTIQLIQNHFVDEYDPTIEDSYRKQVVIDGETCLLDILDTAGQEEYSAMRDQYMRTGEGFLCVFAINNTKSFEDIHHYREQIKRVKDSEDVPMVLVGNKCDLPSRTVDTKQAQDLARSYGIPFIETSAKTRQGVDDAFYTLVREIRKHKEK
Sequence of KRAS G12C (P62937 whole entry): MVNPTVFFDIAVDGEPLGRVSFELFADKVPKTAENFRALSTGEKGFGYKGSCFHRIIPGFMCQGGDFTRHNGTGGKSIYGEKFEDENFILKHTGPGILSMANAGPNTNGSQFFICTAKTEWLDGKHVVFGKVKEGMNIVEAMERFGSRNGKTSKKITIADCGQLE
Description: (§2) This protocol may also be executed substituting other Ras proteins or nucleotides.
(§3) The purpose of this biochemical assay was to measure the ability of test compounds to facilitate ternary complex formation between a nucleotide-loaded K-Ras isoform and Cyclophilin A; the resulting ternary complex disrupts binding to a BRAF^RBD construct, inhibiting K-Ras signaling through a RAF effector. Data is reported as IC50 values.
(§4) Compound was present in plate wells as a 10-point 3-fold dilution series starting at a final concentration of 30 μM. After incubation at 25° C. for 3 hours, a mixture of Anti-His Eu-W1024 and anti-GST allophycocyanin was then added to assay sample wells at final concentrations of 10 nM and 50 nM, respectively, and the reaction incubated for an additional 1.5 hours. […] Compounds that facilitate disruption of a K-Ras:RAF complex were identified as those eliciting a decrease in the TR-FRET ratio relative to DMSO control wells.
as §3, with “BRAF^RBDD” for “BRAF^RBD”

KRAS WT = KRAS WT (Homo sapiens, UniProt P01116+P62937); assay: as above; assay type: biochemical; settings: KRAS WT; read-out: KRAS WT FRET data IC50
Sequence of KRAS WT (P01116 1-169 isoform P01116-2 limits assumed): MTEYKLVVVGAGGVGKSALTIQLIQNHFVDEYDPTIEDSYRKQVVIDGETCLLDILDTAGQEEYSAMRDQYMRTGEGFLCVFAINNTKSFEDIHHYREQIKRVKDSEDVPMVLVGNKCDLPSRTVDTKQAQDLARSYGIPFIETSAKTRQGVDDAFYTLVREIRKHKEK
Sequence of KRAS WT (P62937 whole entry): as the sequence (P62937 whole entry) above
Description: as §2, §3, §4
as §3, with “BRAF^RBDD” for “BRAF^RBD”

KRAS G13C = KRAS G13C (Homo sapiens, UniProt P01116+P62937, G13C); assay: as above; assay type: biochemical; settings: read-out: KRAS G13C FRET data, IC50
Sequence of KRAS G13C (P01116 1-169 isoform P01116-2 G13C): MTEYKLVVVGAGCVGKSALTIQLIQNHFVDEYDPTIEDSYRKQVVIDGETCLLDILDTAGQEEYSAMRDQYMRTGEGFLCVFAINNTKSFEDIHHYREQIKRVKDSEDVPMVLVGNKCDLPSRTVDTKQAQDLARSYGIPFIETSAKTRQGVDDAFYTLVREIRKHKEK
Sequence of KRAS G13C (P62937 whole entry): as the sequence (P62937 whole entry) above
Description: as §2, §3, §4
as §3, with “BRAF^RBDD” for “BRAF^RBD”

KRAS G13D = KRAS G13D (Homo sapiens, UniProt P01116+P62937, G13D); assay: as above; assay type: biochemical; settings: KRAS G13D; read-out: KRAS G13D FRET data IC50
Sequence of KRAS G13D (P01116 1-169 isoform P01116-2 G13D limits assumed): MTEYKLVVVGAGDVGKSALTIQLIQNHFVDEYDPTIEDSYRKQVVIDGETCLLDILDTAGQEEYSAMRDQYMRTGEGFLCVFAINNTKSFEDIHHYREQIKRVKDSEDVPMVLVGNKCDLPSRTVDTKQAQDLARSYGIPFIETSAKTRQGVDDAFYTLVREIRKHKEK
Sequence of KRAS G13D (P62937 whole entry): as the sequence (P62937 whole entry) above
Description: as §2, §3, §4
as §3, with “BRAF^RBDD” for “BRAF^RBD”

KRAS G12D = KRAS G12D (Homo sapiens, UniProt P01116+P62937, G12D); assay: as above; assay type: biochemical; settings: read-out: KRAS G12D FRET data, IC50
Sequence of KRAS G12D (P01116 1-169 isoform P01116-2 G12D limits assumed): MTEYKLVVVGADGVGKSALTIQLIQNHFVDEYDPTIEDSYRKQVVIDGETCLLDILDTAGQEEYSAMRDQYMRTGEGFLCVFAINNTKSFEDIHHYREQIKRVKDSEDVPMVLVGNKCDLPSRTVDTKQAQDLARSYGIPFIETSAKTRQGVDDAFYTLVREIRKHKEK
Sequence of KRAS G12D (P62937 whole entry): as the sequence (P62937 whole entry) above
Description: as §2, §3, §4
as §3, with “BRAF^RBDD” for “BRAF^RBD”

KRAS G12S = KRAS G12S (Homo sapiens, UniProt P01116+P62937, G12S); assay: as above; assay type: biochemical; settings: read-out: KRAS G12S FRET data, IC50
Sequence of KRAS G12S (P01116 1-169 isoform P01116-2 G12S limits assumed): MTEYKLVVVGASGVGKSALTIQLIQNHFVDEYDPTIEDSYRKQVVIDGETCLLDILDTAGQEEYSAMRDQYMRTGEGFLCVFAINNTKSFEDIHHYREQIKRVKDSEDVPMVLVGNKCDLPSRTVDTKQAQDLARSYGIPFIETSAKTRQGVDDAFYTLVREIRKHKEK
Sequence of KRAS G12S (P62937 whole entry): as the sequence (P62937 whole entry) above
Description: as §2, §3, §4
as §3, with “BRAF^RBDD” for “BRAF^RBD”

KRAS G12V = KRAS G12V (Homo sapiens, UniProt P01116+P62937, G12V); assay: as above; assay type: biochemical; settings: KRAS G12V; read-out: KRAS G12V FRET data IC50
Sequence of KRAS G12V (P01116 1-169 isoform P01116-2 G12V limits assumed): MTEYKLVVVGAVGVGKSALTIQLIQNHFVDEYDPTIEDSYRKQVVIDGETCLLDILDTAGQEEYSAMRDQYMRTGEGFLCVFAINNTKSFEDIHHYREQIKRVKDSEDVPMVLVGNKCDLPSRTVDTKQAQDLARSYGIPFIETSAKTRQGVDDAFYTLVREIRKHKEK
Sequence of KRAS G12V (P62937 whole entry): as the sequence (P62937 whole entry) above
Description: as §2, §3, §4
as §3, with “BRAF^RBDD” for “BRAF^RBD”

NRAS G12C = NRAS G12C (Homo sapiens, UniProt P01111+P62937, G12C); assay: as above; assay type: biochemical; settings: NRAS G12C; read-out: NRAS G12C FRET data IC50
Sequence of NRAS G12C (P01111 whole entry G12C): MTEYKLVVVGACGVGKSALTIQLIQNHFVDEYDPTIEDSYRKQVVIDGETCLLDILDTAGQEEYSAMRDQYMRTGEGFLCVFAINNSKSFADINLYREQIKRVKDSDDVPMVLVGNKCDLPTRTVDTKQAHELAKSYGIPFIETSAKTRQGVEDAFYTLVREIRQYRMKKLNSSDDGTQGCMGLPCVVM
Sequence of NRAS G12C (P62937 whole entry): as the sequence (P62937 whole entry) above
Description: as §2, §3, §4
as §3, with “BRAF^RBDD” for “BRAF^RBD”

| Structure (SMILES) | IC50 (NCI-H358 (K-Ras G12C)) | IC50 (KRAS G12C) | IC50 (KRAS WT) | IC50 (KRAS G13C) | IC50 (KRAS G13D) | IC50 (KRAS G12D) | IC50 (KRAS G12S) | IC50 (KRAS G12V) | IC50 (NRAS G12C) |
| --- | --- | --- | --- | --- | --- | --- | --- | --- | --- |
| CCn1c(-c2cccnc2COC)c2c3cc(ccc31)-c1cc(O)cc(c1)C[C@H](NC(=O)[C@H](C(C)C)N(C)C(=O)[C@H]1CCNC1)C(=O)N1CCC[C@H](N1)C(=O)OCC(C)(C)C2 [Example A32] | > 10000 nM | 100 to 1000 nM | 100 to 1000 nM | 100 to 1000 nM | 100 to 1000 nM | 100 to 1000 nM | 100 to 1000 nM | 1000 to 10000 nM | 100 to 1000 nM |
| CCn1c(-c2cnccc2COC)c2c3cc(ccc31)-c1cc(O)cc(c1)C[C@H](NC(=O)[C@H](C(C)C)N(C)C(=O)CN1CCOCC1)C(=O)N1CCC[C@H](N1)C(=O)OCC(C)(C)C2 [Example A65] | 1000 to 10000 nM | 100 to 1000 nM | 100 to 1000 nM | 100 to 1000 nM | 100 to 1000 nM | 1000 to 10000 nM | 100 to 1000 nM | 1000 to 10000 nM | 100 to 1000 nM |
| CCn1c(-c2cnccc2COC)c2c3cc(ccc31)-c1cc(O)cc(c1)C[C@H](NC(=O)[C@@H](OC(=O)N(C)C)C(C)C)C(=O)N1CCC[C@H](N1)C(=O)OCC(C)(C)C2 [Example A53] | 1000 to 10000 nM | 100 to 1000 nM | 1000 to 10000 nM | 1000 to 10000 nM | 1000 to 10000 nM | > 10000 nM | 1000 to 10000 nM | 1000 to 10000 nM | 1000 to 10000 nM |
| CCn1c(-c2cnccc2COC)c2c3cc(ccc31)-c1cc(O)cc(c1)C[C@H](NC(=O)[C@H](C(C)C)N(C)C(=O)[C@H]1CCNC1)C(=O)N1CCC[C@H](N1)C(=O)OCC(C)(C)C2 [Example A10] | 1000 to 10000 nM | 10 to 100 nM | 10 to 100 nM | 10 to 100 nM | 10 to 100 nM | 100 to 1000 nM | 10 to 100 nM | 100 to 1000 nM | 10 to 100 nM |
| CCn1c(-c2cnccc2COC)c2c3cc(ccc31)-c1cc(O)cc(c1)C[C@H](NC(=O)[C@H](C(C)C)N(C)C(=O)[C@H]1CCN(S(=O)(=O)N3CC(N)C3)C1)C(=O)N1CCC[C@H](N1)C(=O)OCC(C)(C)C2 [Example A35] | 100 to 1000 nM | 100 to 1000 nM | 100 to 1000 nM | 100 to 1000 nM | 100 to 1000 nM | 1000 to 10000 nM | 100 to 1000 nM | 100 to 1000 nM | 100 to 1000 nM |
| CCn1c(-c2cnccc2COC)c2c3cc(ccc31)-c1cc(O)cc(c1)C[C@H](NC(=O)[C@H](C(C)C)N1CCCCC1=O)C(=O)N1CCC[C@H](N1)C(=O)OCC(C)(C)C2 [Example A44] | 1000 to 10000 nM | 100 to 1000 nM | 100 to 1000 nM | 1000 to 10000 nM | 1000 to 10000 nM | 1000 to 10000 nM | 1000 to 10000 nM | 100 to 1000 nM | 100 to 1000 nM |
| CCn1c(-c2cnccc2COC)c2c3cc(ccc31)-c1cc(O)cc(c1)C[C@H](NC(=O)[C@H](C(C)C)N(C)C(=O)[C@H]1CCN(C(=O)C3COC3)C1)C(=O)N1CCC[C@H](N1)C(=O)OCC(C)(C)C2 [Example A9] | 1000 to 10000 nM | 10 to 100 nM | 100 to 1000 nM | 100 to 1000 nM | 100 to 1000 nM | 1000 to 10000 nM | 100 to 1000 nM | 100 to 1000 nM | 100 to 1000 nM |
